In patent US4172148A, “Ruminant feeds containing trichloroethyl esters of essential amino acids” (E. R. Squibb & Sons, Inc., priority 1978, dated 1979):

Test system: volatile fatty acid concentrations in the in vitro rumen fermentation
Assay: in vitro rumen fermentation, volatile fatty acids, high concentrate substrate, alfalfa hay:concentrate 1:3 (Examples 4 and 7)
Parameters: species or system sheep
Settings: for Acetic acid / Acetic:propionic / Butyric acid / Propionic acid / Total acids: hay:concentrate 1:3
Method: A one gram sample of substrate ground through a 1 mm screen is weighed into 100 ml. lipless beakers equipped with gas-release valves. The substrate consists of alfalfa hay containing approximately 16% protein and a concentrate containing ground corn 60.7%, alfalfa meal 17.5%, molasses 10.0%, soybean meal 5.3%, wheat bran 5.0%, trace mineralized salt 1.0%, limestone 0.5% and Vitamin D 300,000 I.U./ton, mixed in the proportion 3:1. The experimental composition is added to the substrate. 25 ml. of filtered rumen fluid obtained from fasted sheep maintained on feed the same as the above mentioned substrate and 25 ml. of McDougal's buffer solution serve as the inoculum. The buffer solution is as follows:
The fermentation mixture is flushed with carbon dioxide and the vessel is capped with a gas release valve. The fermentation vessel (beaker) is placed in a water bath and incubated at 39° C.±1° for six hours. The sample is mixed every hour by shaking the beaker.
At the end of the 6-hour fermentation period the sample is strained through 4 layers of cheesecloth into a sample bottle containing 1 ml. saturated solution of mercuric chloride. The sample is frozen immediately until analyzed for the volatile fatty acids (VFA) (mg/100 ml.). Prior to analysis, each sample is acidified with 30% phosphoric acid and then analyzed by gas chromatography using a column containing 5% nonylphenoxypolyoxyethylene ethanol plus 0.5% phosphoric acid on 100-120 mesh Gas Chrom S. The acids determined are acetic, propionic, butyric, isobutyric, valeric and isovaleric acids. Total VFA is considered as the addition of these acids. The ratio of acetic: propionic (A:P) is obtained by dividing the concentration of acetic acid by that of propionic acid.
The procedure is described in Example 3. In this example, however, the substrate consisted of alfalfa hay and concentrate in the ratio of 1:3 and inoculum was obtained from sheep fed alfalfa and concentrate in the ratio of 1:3. The concentrate (Fit-N-Fresh) is commercially available from Agway, Inc. and contains grain products, plant protein products, processed grain by-products, cane molasses, minerals, vitamins and a preservative.
The 2,2,2-trichloroethyl ester of glycine was tested in vitro in a manner similar to that described in Example 4.

Br.N[C@@H](Cc1ccccc1)C(=O)OCC(Cl)(Cl)Cl [L-Phenylalanine 2,2,2-trichloroethyl ester, hydrobromide]
Acetic acid (0.02 mg/ml): 80 % of control | Acetic:propionic (0.02 mg/ml): 69 % of control | Butyric acid (0.02 mg/ml): 114 % of control | Propionic acid (0.02 mg/ml): 116 % of control | Total acids (0.02 mg/ml): 95 % of control | Acetic acid (0.1 mg/ml): 76 % of control | Acetic:propionic (0.1 mg/ml): 66 % of control | Butyric acid (0.1 mg/ml): 113 % of control | Propionic acid (0.1 mg/ml): 115 % of control | Total acids (0.1 mg/ml): 92 % of control | Acetic acid (0.2 mg/ml): 76 % of control | Acetic:propionic (0.2 mg/ml): 65 % of control | Butyric acid (0.2 mg/ml): 113 % of control | Propionic acid (0.2 mg/ml): 116 % of control | Total acids (0.2 mg/ml): 92 % of control | Acetic acid (0.4 mg/ml): 79 % of control | Acetic:propionic (0.4 mg/ml): 65 % of control | Butyric acid (0.4 mg/ml): 116 % of control | Propionic acid (0.4 mg/ml): 120 % of control | Total acids (0.4 mg/ml): 96 % of control | Acetic acid (1.0 mg/ml): 76 % of control | Acetic:propionic (1.0 mg/ml): 64 % of control | Butyric acid (1.0 mg/ml): 112 % of control | Propionic acid (1.0 mg/ml): 119 % of control | Total acids (1.0 mg/ml): 92 % of control | effect on acetic:propionic ratio (in words) (high concentrate substrate): decreasing the acetic:propionic ratio | effect on propionic acid concentration (in words) (high concentrate substrate): effective in increasing the propionic acid concentration
